Several values for one entry are separate records, joined by “and”; a condition that tells them apart may be missing. Identical values can stand only once.
Columns and labels:
[1] = test system: Rv1258c efflux pump; settings: for Efflux Ratio: H37Rv MIC / Rv1258c KO MIC
[2] = test system: M. tuberculosis H37Rv Rv1258c knockout (KO); test: microbe, parasite or virus in culture; type: cell-based; settings: Tables 1-4 and text; 7 days, 7H9 broth
[3] = test system: M. tuberculosis H37Rv; test: microbe, parasite or virus in culture; type: cell-based, Mycobacterium tuberculosis; settings: Tables 1-4 and text; […]
[4] = molecular target: Purified 70S M. smegmatis bacterial ribosomes (Mycolicibacterium smegmatis, UniProt A0QSG6); test: Ribosomal translation inhibition; type: biochemical; settings: for Ribosome IC50: inhibits luciferase activity by 50%
Sequence of Purified 70S M. smegmatis bacterial ribosomes (A0QSG6 whole entry): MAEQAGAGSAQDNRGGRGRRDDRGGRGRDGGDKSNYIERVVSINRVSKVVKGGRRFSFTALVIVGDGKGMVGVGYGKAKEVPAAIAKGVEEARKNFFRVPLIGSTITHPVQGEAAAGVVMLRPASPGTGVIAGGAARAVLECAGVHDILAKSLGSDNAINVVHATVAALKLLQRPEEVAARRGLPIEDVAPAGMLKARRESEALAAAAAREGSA

SMILES | Fold change of MIC between H37Rv and Rv1258c KO (efflux) [1] [fold] | Efflux Ratio [1] | Rv1258c KO MIC [2] [µg/mL] | H37Rv MIC [3] [µg/mL] | Ribosome IC50 [4] | IC50 ([4]; as printed in modeling section) [µM] | Fold weaker binding than 1 ([4]; relative to 1) [fold]
Br.Br.Br.CNC1C(O)C(NC)C2OC3(O)C(NC(=O)Cc4cc(C(C)C)ccn4)CC(C)OC3OC2C1O [Compound 33, 3′-Dihydro-3′-deoxy-3′(R)-(4-isopropylpyridin-2-yl)acetylamino spectinomycin trihydrobromide] | 4 | 4 | 1.6 | 6.3 | 0.36 µg/mL | – | –
Br.Br.Br.CNC1C(O)C(NC)C2OC3(O)C(NC(=O)Cc4cc(OC)ccn4)CC(C)OC3OC2C1O [Compound 34, 3′-Dihydro-3′-deoxy-3′(R)-(4-methoxypyridin-2-yl)acetylamino spectinomycin trihydrobromide] | – | 4 | 3.1 | 12.5 | 0.39 µg/mL | – | –
Br.Br.Br.CNC1C(O)C(NC)C2OC3(O)C(OC(C)C[C@H]3NC(=O)Cc3cnccn3)OC2C1O (stereo partly drawn) [Compound 15, 3′-Dihydro-3′-deoxy-3′(R)-(pyrazin-2-yl)acetylamino spectinomycin trihydrobromide] | – | 1 | 25 | – | – | – | –
CNC1C(O)C(NC)C2OC3(O)C(OC(C)C[C@H]3NC(=O)Cc3cccnc3)OC2C1O.Cl.Cl.Cl (stereo partly drawn) [Compound 3, 3′-Dihydro-3′-deoxy-3′(R)-(pyridin-3yl)acetylamino spectinomycin trihydrochloride] | – | – | 6.3 | 200 | – | – | –
CNC1C(O)C(NC)C2OC3(O)C(OC(C)C[C@H]3NCCc3ccccc3)OC2C1O.Cl.Cl.Cl (stereo partly drawn) [Compound 6, 3′-Dihydro-3′-deoxy-4(R)-2-phenylethylamino spectinomycin trihydrochloride] | – | – | – | 200 | – | – | –
Br.Br.Br.CNC1C(O)C(NC)C2OC3(O)C(NC(=O)Cn4cccn4)CC(C)OC3OC2C1O [Compound 22, 3′-Dihydro-3′-deoxy-3′(R)-(1H-pyrazol-1-yl)acetylamino spectinomycin trihydrobroride] | – | 1 | 6.3 | 6.3 | 0.42 µg/mL | – | –
Br.Br.Br.CNC1C(O)C(NC)C2OC3(O)C(OC(C)C[C@H]3NC(=O)Cc3ccncn3)OC2C1O (stereo partly drawn) [Compound 16, 3′-Dihydro-3′-deoxy-3′(R)-(pyrimidin-4-yl)acetylamino spectinomycin trihydrobromide] | – | 0.5 | 25 | – | – | – | –
CN[C@@H]1[C@H](O)[C@H](NC)[C@H]2O[C@]3(O)[C@H](O[C@@H]2[C@H]1O)O[C@H](C)C[C@H]3NC(=O)Cc1ncccn1.Cl.Cl [Compound 13, 3′-Dihydro-3′-deoxy-3′(R)-(pyrimidin-2yl)acetylamino spectinomycin dihydrochloride] | – | – | >200 | – | 45.50 µg/mL | 45.5 | 39
Br.Br.Br.CNC1C(O)C(NC)C2OC3(O)C(OC(C)C[C@H]3NC(=O)Nc3ccccc3)OC2C1O (stereo partly drawn) [Compound 8, 3′-Dihydro-3′-deoxy-3′(R)-phenylaminocarbonylamino spectinomycin trihydrobromide] | – | >8 | 25 | – | 3.77 µg/mL | – | –
Br.Br.Br.CNC1C(O)C(NC)C2OC3(O)C(NC(=O)CCc4ccccn4)CC(C)OC3OC2C1O [Compound 12, 3′-Dihydro-3′-deoxy-3′(R)-(pyridin-2-yl)propanoylamino spectinomycin trihydrobromide] | 8 | 8 | 6.3 | 50 | 3.80 µg/mL | – | –
Br.Br.Br.CNC1C(O)C(NC)C2OC3(O)C(NC(=O)Cc4c[nH]cn4)CC(C)OC3OC2C1O [Compound 20, 3′-Dihydro-3′-deoxy-3′(R)-(1H-imidazol-4-yl)acetylamino spectinomycin trihydrobromide] | – | 2 | 12.5 | 25 | 1.10 µg/mL | – | –
CNC1C(O)C(NC)C2OC3(O)C(OC(C)C[C@H]3NC(=O)Cc3cc(OC)c(F)cn3)OC2C1O.Cl.Cl.Cl (stereo partly drawn) [Compound 50, 3′-Dihydro-3′-deoxy-3′(R)-(5-fluoro-4-methoxypyridin-2-yl)acetylamino spectinomycin trihydrochloride] | – | 2 | 3.1 | 6.3 | 0.92 µg/mL | – | –
Br.Br.Br.CNC1C(O)C(NC)C2OC3(O)C(NC(=O)Cc4ccc(Br)cn4)CC(C)OC3OC2C1O [Compound 43, 3′-Dihydro-3′-deoxy-3′(R)-(5-bromopyridin-2-yl)acetylamino spectinomycin trihydrobromide] | – | 2 | 1.6 | 3.1 | 0.42 µg/mL | – | –
CNC1C(O)C(NC)C2OC3(O)C(NC(=O)Nc4ccccn4)CC(C)OC3OC2C1O.Cl.Cl [Compound 10, 3′-Dihydro-3′-deoxy-3′(R)-(pyridin-2-yl)aminocarbonylamino spectinomycin dihydrochloride] | – | 4 | 3.1 | 12.5 | 2.24 µg/mL | – | –
Br.Br.Br.CNC1C(O)C(NC)C2OC3(O)C(NC(=O)Cc4ccccn4)CC(C)OC3OC2C1O [Compound 5, 3′-Dihydro-3′-deoxy-3′(S)-(pyridin-2-yl)acetylamino spectinomycin Trihydrobromide] | – | – | >200 | – | 42.23 µg/mL | – | –
CNC1C(O)C(NC)C2OC3(O)C(OC(C)C[C@H]3NC(=O)Cc3ccncc3)OC2C1O.Cl.Cl.Cl (stereo partly drawn) [Compound 4, 3′-Dihydro-3′-deoxy-3′(R)-(pyridin-4yl)acetylamino spectinomycin trihydrochloride] | – | – | 12.5 | 200 | – | – | –
Br.Br.Br.CNC1C(O)C(NC)C2OC3(O)C(NC(=O)Cc4nc5ccccc5o4)CC(C)OC3OC2C1O [Compound 24, 3′-Dihydro-3′-deoxy-3′(R)-(benzo[d]oxazol-2-yl)acetylamino spectinomycin trihydrobroride] | – | 2 | 3.1 | 6.3 | 0.61 µg/mL | – | –
Br.Br.Br.CNC1C(O)C(NC)C2OC3(O)C(NC(=O)Cc4ccc(N)cn4)CC(C)OC3OC2C1O [Compound 37, 3′-Dihydro-3′-deoxy-3′(R)-(5-aminopyridin-2-yl)acetylamino spectinomycin trihydrobromide] | – | – | 6.3 | 6.3 | 0.30 µg/mL | – | –
CNC1C(O)C(NC)C2OC3(O)C(OC(C)C[C@H]3NC(=O)Cc3ccc(OC(F)F)cn3)OC2C1O.Cl.Cl.Cl (stereo partly drawn) [Compound 40, 3′-Dihydro-3′-deoxy-3′(R)-(5-(difluoromethoxy)pyridin-2-yl)acetylamino spectinomycin trihydrochloride] | – | 2 | – | – | – | – | –
CNC1C(O)C(NC)C2OC3(O)C(OC(C)C[C@H]3NC(=O)Oc3ccccc3)OC2C1O.Cl.Cl (stereo partly drawn) [Compound 7, 3′-Dihydro-3′-deoxy-3′(R)-phenyloxycarbonylamino spectinomycin dihydrochloride] | – | – | >200 | >200 | 16.62 µg/mL | – | –
Br.Br.Br.CNC1C(O)C(NC)C2OC3(O)C(OC(C)C[C@H]3NC(=O)Cc3nccc(Cl)c3C(C)C)OC2C1O (stereo partly drawn) [Compound 45, 3′-Dihydro-3′-deoxy-3′(R)-(4-chloro-3-isopropylpyridin-2-yl)acetylamino spectinomycin trihydrobromide] | 32 | 32 | 1.6 | 50 | 2.3 µg/mL and 2.31 µg/mL | – | –
CNC1C(O)C(NC)C2OC3(O)C(NC(=O)c4ccccn4)CC(C)OC3OC2C1O.Cl.Cl.Cl [Compound 11, 3′-Dihydro-3′-deoxy-3′(R)-pyridin-2-carboxylicamino spectinomycin trihydrochloride] | – | – | >200 | – | – | – | –
Br.Br.Br.CNC1C(O)C(NC)C2OC3(O)C(NC(=O)Cc4nccs4)CC(C)OC3OC2C1O [Compound 19, 3′-Dihydro-3′-deoxy-3′(R)-(thiazol-2-yl) acetylamino spectinomycin trihydrobromide] | – | 1 | 6.3 | – | 0.72 µg/mL | – | –
Br.Br.Br.CNC1C(O)C(NC)C2OC3(O)C(NC(=O)Cc4cc(C)ccn4)CC(C)OC3OC2C1O [Compound 30, 3′-Dihydro-3′-deoxy-3′(R)-(4-methylpyridin-2-yl)acetylamino spectinomycin trihydrobromide] | – | 0.5 | 6.3 | 3.1 | 0.47 µg/mL | – | –
Br.Br.Br.CNC1C(O)C(NC)C2OC3(O)C(NC(=O)Cc4cccnn4)CC(C)OC3OC2C1O [Compound 14, 3′-Dihydro-3′-deoxy-3′(R)-(pyridazin-3-yl) acetylamino spectinomycin trihydrobromide] | – | 2 | 12.5 | – | – | – | –
Br.Br.Br.CNC1C(O)C(NC)C2OC3(O)C(NC(=O)Cc4ccc(C)cn4)CC(C)OC3OC2C1O [Compound 31, 3′-Dihydro-3′-deoxy-3′(R)-(5-methylpyridin-2-yl)acetylamino spectinomycin trihydrobromide] | – | – | 3.1 | 3.1 | 0.54 µg/mL | – | –
Br.Br.Br.CNC1C(O)C(NC)C2OC3(O)C(NC(=O)Cc4csc(N)n4)CC(C)OC3OC2C1O [Compound 18, 3′-Dihydro-3′-deoxy-3′(R)-(2-aminothiazol-4-yl)acetylamino spectinomycin trihydrobromide] | – | 1 | 6.3 | – | 0.62 µg/mL | – | –

— publication PMC5493200 (ACS infectious diseases, 2016)
